≈ marks a conversion by molar mass, not a printed value.
What was measured:
[1] = tested on: T. cruzi ATCC 50825 strain epimastigotes; test: Antitrypanosomal activity, broth microdilution with MTT viability (IC50); assay type: cell-based, Trypanosoma cruzi; conditions: for SI (selectivity index): IC50 fibroblasts (L929) / IC50 T. cruzi epimastigotes; for IC50: Trypanosoma cruzi
Experimental: The Trypanosoma cruzi ATCC 50825 reference strain and the L929 mouse fibroblast cell line (American Type Culture Collection, USA) used in this study were obtained from the Parasite Bank of […] Bayar University Faculty of Medicine. […] For the determination of antitrypanosomal activity, 100 μL of RPMI-1640 medium was distributed into each well of sterile, flat-bottom, 96-well microplates. Serial dilutions of the hybrid NP complex were prepared in the range of 2500-19.5 μg/mL, miltefosine in the range of 128-1 μg/mL, and benznidazole in the range of 320-0.30 μg/mL. […] The morphological structure and motility of the epimastigotes in all wells were observed under an inverted microscope. The lowest concentration of the active substance at which all parasites were immobile and their morphology was disrupted was determined as the minimum parasiticidal concentration (MPC). […] Absorbance values were measured at 570 nm using a Thermo Varioskan model spectrophotometer (USA). IC50 values indicating antitrypanosomal activity were calculated using GraphPad Prism 8.4.2 software. Efficacy tests were repeated three times on different days.

T. cruzi amastigote = tested on: T. cruzi amastigote; set-up: method as in Gulin et al. (2022) [17]; conditions: amastigote forms; ref Gulin et al. (2022) [17]; cited from earlier work
[2] = Cytotoxic activity, MTT assay; assay type: cell-based; conditions: mouse, L929 fibroblast cells, read-out: IC50 L929 (cytotoxicity)
Experimental: The Trypanosoma cruzi ATCC 50825 reference strain and the L929 mouse fibroblast cell line (American Type Culture Collection, USA) used in this study were obtained from the Parasite Bank of […] Bayar University Faculty of Medicine. Fibroblasts preserved in liquid nitrogen were treated with RPMI-1640 and passaged into RPMI-1640 medium containing 10% FBS (fetal bovine serum). The cells were incubated at 37 °C with 5% CO2 for 48 h. The number and viability of proliferating cells were determined using Trypan Blue staining and a hemocytometer. A 100 μL cell suspension containing 10^5 cells/mL was distributed into 96-well microplates. Serial dilutions of the […] suspension (final concentration range: 5000-39 μg/mL), miltefosine (final concentration range: 512-0.125 μg/mL), and benznidazole (final concentration range: 640-0.60 μg/mL) were prepared in a separate microplate and transferred to the microplates containing the cells. The plates were incubated at 37 °C with 5% CO2 for 48 h. […] IC50 values indicating cytotoxic activity were calculated using GraphPad Prism 8.4.2 software. The cytotoxic activity tests were repeated three times on different days.

T. cruzi trypomastigote = tested on: T. cruzi trypomastigote; set-up: method as in Gulin et al. (2022) [17]; conditions: trypomastigote forms; ref Gulin et al. (2022) [17]; cited from earlier work
[3] = tested on: T. cruzi ATCC 50825 strain epimastigotes; test: Minimum parasiticidal concentration (MPC), motility and morphology under inverted microscope; assay type: cell-based, Trypanosoma cruzi
[4] = ATCC50825, 24 h, 24 h, epimastigotes
[5] = ATCC50825, 48 h, 48 h, epimastigotes
[6] = ATCC50825, 72 h, 72 h, epimastigotes

Question: Which “SI (selectivity index)” value ([1]; 24 h) does the source give for `CCCCCCCCCCCCCCCCOP(=O)([O-])OCC[N+](C)(C)C` [Miltefosine] here?
Answer: Its value is 1.5.

Question: And the “SI (selectivity index)” value ([1]; 48 h)?
Answer: Its value is 2.2.

Question: What about the “IC50 T. cruzi” value ([1]; 72 h, epimastigotes) of the same compound?
Answer: Its value is 6.42 µg/mL (≈ 15.8 µM).

Question: What about the “SI (selectivity index)” value ([1]; 72 h) of the same compound?
Answer: The value was 4.2.

Question: What about the IC50 [1, 4] of the same compound?
Answer: The IC50 was 26.2 µg/mL (≈ 64.2 µM).

Question: What about the IC50 [1, 5] of the same compound?
Answer: The IC50 was 15 µg/mL (≈ 36.8 µM).

Question: What about the IC50 [1, 6] of the same compound?
Answer: The IC50 was 6.42 µg/mL (≈ 15.8 µM).

Question: What about the “Selectivity (SI) as worded” value ([1]; over 24, 48 and 72 h, L929 vs T. cruzi epimastigotes) of the same compound?
Answer: Its value is greater than 1.

Question: What about the IC50 (T. cruzi amastigote) of the same compound?
Answer: The IC50 was 480 nM.

Question: And the IC50 at 24 h [2]?
Answer: The IC50 at 24 h was 38 µg/mL (≈ 93.4 µM).

Question: What about the IC50 at 48 h [2] of the same compound?
Answer: The IC50 at 48 h was 33.5 µg/mL (≈ 82.2 µM).

Question: What about the IC50 at 72 h [2] of the same compound?
Answer: Its IC50 at 72 h is 27 µg/mL (≈ 66.2 µM).

Question: What about the IC50 (T. cruzi trypomastigote) of the same compound?
Answer: Its IC50 is 550 nM.

Question: What about the “MPC (minimum parasiticidal concentration)” value (“MPC” for short) ([3]; 24 h) of the same compound?
Answer: The value was 128 µg/mL.

Question: What about the “MPC” value ([3]; 48 h) of the same compound?
Answer: Its value is 128 µg/mL.

Question: And the “MPC” value ([3]; 72 h)?
Answer: The value was 64 µg/mL.

Question: Which results are given for `O=C(Cn1ccnc1[N+](=O)[O-])NCc1ccccc1` [Benznidazole]?
Answer: SI (selectivity index) ([1]; 24 h): 15; SI (selectivity index) ([1]; 48 h): 18.2; SI (selectivity index) ([1]; 72 h): 23; IC50 [1, 4]: 67.1 µg/mL (≈ 258 µM); IC50 [1, 5]: 45 µg/mL (≈ 173 µM); IC50 [1, 6]: 34.5 µg/mL (≈ 133 µM); IC50 at 24 h [2]: 1010 µg/mL (≈ 3880 µM); IC50 at 48 h [2]: 822 µg/mL (≈ 3160 µM); IC50 at 72 h [2]: 807 µg/mL (≈ 3100 µM); MPC (minimum parasiticidal concentration) ([3]; 24 h): 155 µg/mL; MPC (minimum parasiticidal concentration) ([3]; 48 h): 155 µg/mL; MPC (minimum parasiticidal concentration) ([3]; 72 h): 77.5 µg/mL
